Consider 47 compounds from paper PMC5607274, “An iterative compound screening contest method for identifying target protein inhibitors using the tyrosine-protein kinase Yes” (Scientific Reports, 2017).

In one assay the target is T1, human recombinant Yes [a.a. 2–543 (end)] (Homo sapiens, UniProt P07947).
T1 construct: human recombinant Yes [a.a; 2–543 (end)]; purchased BPS Bioscience 40488
T1 sequence (P07947 2-543): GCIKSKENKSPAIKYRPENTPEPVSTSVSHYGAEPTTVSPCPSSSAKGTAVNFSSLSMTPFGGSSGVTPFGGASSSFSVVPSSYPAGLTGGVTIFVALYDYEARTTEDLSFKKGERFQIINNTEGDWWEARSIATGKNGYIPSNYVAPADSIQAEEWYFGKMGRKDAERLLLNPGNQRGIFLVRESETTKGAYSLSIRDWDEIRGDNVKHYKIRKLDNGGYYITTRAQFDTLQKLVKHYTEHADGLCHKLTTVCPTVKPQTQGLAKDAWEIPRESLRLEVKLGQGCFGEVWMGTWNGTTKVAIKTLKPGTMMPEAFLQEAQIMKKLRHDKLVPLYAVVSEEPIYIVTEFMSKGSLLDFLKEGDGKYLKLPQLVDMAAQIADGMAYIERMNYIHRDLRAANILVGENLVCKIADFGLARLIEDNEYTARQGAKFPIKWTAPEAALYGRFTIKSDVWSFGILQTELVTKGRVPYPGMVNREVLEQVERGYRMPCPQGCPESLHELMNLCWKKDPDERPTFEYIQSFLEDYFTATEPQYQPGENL
Kind of assay: ADP-Glo kinase assay, inhibition rates of Yes phosphorylation activity (first and second screening). In kind it is biochemical. The following applies: first screening; mean of n = 4 wells; 10 μmol L−1 compound. The method, boiled down:
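ADP-Glo luminescence measured inhibition of human recombinant Yes (a.a. 2–543) phosphorylation activity. In the first screen, each compound ran in 4 wells and inhibition rates were averaged. The second screen retested hits as compounds dissolved from fresh powder.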
Consider `Cc1nc(NCCn2cccn2)c2cnn(-c3ccccc3)c2n1` [Compound Z751573116], for which the “First screening IR (inhibition rate)” value came to 14%.

As for `CCN(CC)C(=O)c1cc(-c2cc(C)oc2C)nc2c1cnn2C(C)C` [Compound Z223881508], the “First screening IR (inhibition rate)” value is recorded as -12%.

Regarding `Cc1ccc(Cn2c(=O)/c(=C/c3ccc(N4CCOCC4)c([N+](=O)[O-])c3)s/c2=C/C(=O)C(C)(C)C)cc1` [Compound Z48770507], the “First screening IR (inhibition rate)” value was 31%.

`NS(=O)(=O)c1cc(S(=O)(=O)c2ccc(Cl)c(S(N)(=O)=O)c2)ccc1Cl` [Compound Z56888775]: the “First screening IR (inhibition rate)” value is -18%.

Take `COc1cc(C(=O)NC(C)c2ccc(-n3ccnc3)cc2)cc(Cl)c1OC(C)C` (stereo not drawn) [Compound Z27306302]: the “First screening IR (inhibition rate)” value was 7%.

Take `CCN(C1CCS(=O)(=O)C1)S(C)(=O)=O` (stereo not drawn) [Compound Z133704180]: the “First screening IR (inhibition rate)” value was found to be 8%.

As to `CCN(CC)S(=O)(=O)c1ccc(N2CCN(S(=O)(=O)c3ccccc3C#N)CC2)nc1` [Compound Z31169752], the “First screening IR (inhibition rate)” value was 6%.

In the case of `Cn1ncc2c(NCC3(c4ccccc4)CC3)ncnc21` [Compound Z229243940], the “First screening IR (inhibition rate)” value was -5%.

Regarding `O=C(OCc1cccc(C(F)(F)F)c1)c1n[nH]c(=O)c2ccccc12` [Compound Z94561070], the “First screening IR (inhibition rate)” value is -11%.

For `CC(NCc1ccc(C(=O)Nc2ccccc2)cc1)c1ccc2c(c1)OCCO2` (stereo not drawn) [Compound Z89008298], the “First screening IR (inhibition rate)” value is -38%.

Take `Cn1cc(NC(=O)C2(c3cccc(C(F)(F)F)c3)CC2)cn1` [Compound Z1068296272]: the “First screening IR (inhibition rate)” value stood at 25%.

In the case of `O=C(CN1CCN(c2nc(-c3cccnc3)nc3scc(-c4ccccc4)c23)CC1)N1CCCCC1` [Compound Z165261498], the “First screening IR (inhibition rate)” value was 9%.

For the compound `N#Cc1ccc(C(=O)Nc2nc(-c3ccc(F)c(F)c3)cs2)cc1` [Compound Z28714833], the “First screening IR (inhibition rate)” value came to 16%.

Take `Cc1cnc(NC(=O)CCCc2nc3ccccc3c(=O)[nH]2)s1` [Compound Z29324663]: the “First screening IR (inhibition rate)” value came to 9%.

Consider `Cl.Clc1ccc(-c2cc(-c3ccccc3Cl)c3cc(Cl)ccc3n2)cc1` [Compound Z48951731], for which the “First screening IR (inhibition rate)” value is listed as -3%.

As to `C(=C\c1ccccc1)/CN1CCN(c2ncnc3c2cnn3Cc2ccccc2)CC1` [Compound Z58287009], the “First screening IR (inhibition rate)” value worked out at 0%.

On to `CC(C)S(=O)(=O)CCS(=O)(=O)c1cccc(Br)c1` [Compound Z1347351377], for which the “First screening IR (inhibition rate)” value is -2%.

For `FC(F)(F)c1ccnc(Nc2ccc(NC3CCOCC3)cc2)n1` [Compound Z1021076320], the “First screening IR (inhibition rate)” value stood at 13%.

`Cc1nn(C)c2sc(C(=O)NC3CCN(C(=O)C(C)(C)C)CC3)cc12` [Compound Z421731088]: the “First screening IR (inhibition rate)” value came out at 3%.

Consider `CN(Cc1ccc(C(=O)NCC(F)(F)F)cc1)c1cc(Cl)nc(N)n1` [Compound Z328693166], for which the “First screening IR (inhibition rate)” value is 10%.

Regarding `CC1CC(C)(C)CC2(C1)NC(=O)N(CN1CCN(c3ccc(C(F)(F)F)cn3)CC1)C2=O` (stereo not drawn) [Compound Z44255985], the “First screening IR (inhibition rate)” value is reported as 18%.

Take `Brc1ccc(/C=C2/CCCc3c2nc2ncnn2c3-c2ccc(Br)cc2)cc1` [Compound Z56784274]: the “First screening IR (inhibition rate)” value is reported as 3%.

In the case of `CS(=O)(=O)Cc1ccc(CNc2ccnc3c(F)ccc(F)c23)cc1` [Compound Z983418922], the “First screening IR (inhibition rate)” value is listed as -17%.

With `Cc1ccc(CSCC(=O)NC(Cc2ncc[nH]2)c2ccccc2)cc1` (stereo not drawn) [Compound Z230096354], the “First screening IR (inhibition rate)” value amounted to 28%.

As for `CCCN(CCC)c1ccc(/C=C/C(=O)c2ccc3c(c2)NC(=O)CO3)cc1` [Compound Z114950486], the “First screening IR (inhibition rate)” value was determined as 26%.

As for `CN(C)S(=O)(=O)c1ccc(CS(=O)(=O)C2CCCC2)o1` [Compound Z1147565999], the “First screening IR (inhibition rate)” value was -1%.

As to `CC(C)n1ncc2cc(/C=C3/CN(C)Cc4c3nc3ccccc3c4C(=O)O)c(Cl)nc21` [Compound Z336032562], the “First screening IR (inhibition rate)” value is 54%.

Take `Cc1cccc(-c2nc(C(C)C)no2)c1NC(=O)CCc1ccccc1` [Compound Z1082320758]: the “First screening IR (inhibition rate)” value came to 4%.

In the case of `Cc1nc(-c2ccsc2)sc1C(=O)Nc1ccc(Cl)cc1F` [Compound Z115004236], the “First screening IR (inhibition rate)” value was 6%.

As to `CCN1CCCN(S(=O)(=O)c2ccccc2S(C)(=O)=O)CC1` [Compound Z1127188257], the “First screening IR (inhibition rate)” value was determined as 43%.

With `CCCOc1ccc(C2/C(=C(\O)c3ccc(F)cc3)C(=O)C(=O)N2CCCn2ccnc2)cc1OC` (stereo not drawn) [Compound Z316169876], the “First screening IR (inhibition rate)” value is 10%.

As to `COc1ccc2c(C)cc(N/N=C/c3ccncc3)nc2c1` [Compound Z50018323], the “First screening IR (inhibition rate)” value turned out to be 3%.

For `COc1ccc(/C=C2/CC(C)Cc3c2nc2ccccc2c3C(=O)OCC(N)=O)cc1` (stereo not drawn) [Compound Z15674725], the “First screening IR (inhibition rate)” value is 30%.

Regarding `Cc1ccc(C(C)C)c(OCC(=O)NC(C)c2ccc(-n3ccnc3)cc2)c1` (stereo not drawn) [Compound Z27307326], the “First screening IR (inhibition rate)” value was determined as 11%.

In the case of `Cc1n[nH]c(C)c1C1CCCCCN1C(=O)Nc1cnc(N(C)C)nc1` (stereo not drawn) [Compound Z1590996465], the “First screening IR (inhibition rate)” value is given as -1%.

Turning to `c1ccc(-n2ncc3c2CCNC3)cc1` [Compound Z409420032], the “First screening IR (inhibition rate)” value is -11%.

Consider `Cc1ccc(NC(=O)CC2SC(=Nc3ccccc3C)N(CCCN3CCOCC3)C2=O)c([N+](=O)[O-])c1` (stereo not drawn) [Compound Z48462494], for which the “First screening IR (inhibition rate)” value is on record as -3%.

Take `CC(C)NC(=O)Nc1ccc(C(=O)N(CCC#N)Cc2ccco2)cc1` [Compound Z979061162]: the “First screening IR (inhibition rate)” value came to 7%.

With `COc1ccc2c(c1)CC/C(=C\c1cccc(C)c1)C2=O` [Compound Z46584406], the “First screening IR (inhibition rate)” value was -6%.

With `CNS(=O)(=O)c1cc(C(=O)N2CCN(Cc3cc(OC)ccc3OC)CC2)ccc1Cl` [Compound Z26970092], the “First screening IR (inhibition rate)” value stood at 28%.

For `CC(C)c1cccc(NC(=O)CN(C)CC(=O)N2c3ccccc3NC(=O)CC2C)c1` (stereo not drawn) [Compound Z203963094], the “First screening IR (inhibition rate)” value is reported as -10%.

As for `CCN(C1CCS(=O)(=O)C1)S(=O)(=O)c1cc(Br)ccc1C` (stereo not drawn) [Compound Z89358343], the “First screening IR (inhibition rate)” value is reported as 1%.

As to `CC(=O)c1cccc(COC(=O)c2n[nH]c3c2CCCC3)c1` [Compound Z1515387931], the “First screening IR (inhibition rate)” value was -3%.

As to `Cc1cccc(C(C)C)c1NC(=O)CN1CCCCC1Cc1ccccc1` (stereo not drawn) [Compound Z991917352], the “First screening IR (inhibition rate)” value is -4%.

As to `Cn1c(CSc2n[nH]c(-c3ccccc3F)n2)nc2ccccc21` [Compound Z982182198], the “First screening IR (inhibition rate)” value is 4%.

For the compound `O=C(NS(=O)(=O)Cc1ccc(Cl)nc1)C1CCc2cn[nH]c2C1` (stereo not drawn) [Compound Z1291253354], the “First screening IR (inhibition rate)” value is -13%.

For the compound `Cc1nc(-c2ccc(CNC(=O)Cc3cccc(F)c3)o2)cs1` [Compound Z164951688], the “First screening IR (inhibition rate)” value is -7%.

The assay is the same for the next values; noted with them: second screening, dissolved from fresh powder; n = 4; 10 μmol L−1 compound.
In the case of `CC(C)n1ncc2cc(/C=C3/CN(C)Cc4c3nc3ccccc3c4C(=O)O)c(Cl)nc21` [Compound Z336032562], the “Second screening IR (inhibition rate)” value is given as -2%.
